Where “and” joins values, the source holds several entries; their conditions need not be identical. Equal values may be shown once.
Columns and labels:
fungal elements = assay: Mycological cure: search for fungal elements by direct microscopy; format: in vivo, human; details: PPS
Method: (§1) A Phase II clinical pharmacology study was conducted in subjects with onychomycosis of the toenail. The study investigated the pharmacokinetics, efficacy and safety of three different dosing regimens of fosravuconazole. […] The three treatment groups were as follows: • a.
(§2) The efficacy endpoints were: (1) overall clinical efficacy; (2) changes over time in efficacy; (3) confirmation of elements of dermatophytes by direct microscopy; and (4) results of identification of dermatophytes by the polymerase chain reaction (PCR) method.
At screening, fungal elements were found by direct microscopy in all treatment groups.

Trichophyton rubrum [1] = assay: Identification of dermatophytes by PCR method: disappearance rate; format: in vivo; details: Week 48
Source text: as §2

[2] = tested on: Trichophyton mentagrophytes; assay: Overall clinical evaluation by identified species; format: in vivo; details: Week 48
Method: as §1

Trichophyton rubrum [3] = assay: Overall clinical evaluation by identified species; format: in vivo; details: Week 48
Method: as §1

Trichophyton species = assay: Overall clinical evaluation by identified species; format: in vivo; details: 200 mg, Week 48
Method: as §1

C[C@@H](c1nc(-c2ccc(C#N)cc2)cs1)[C@@](Cn1cncn1)(OCOP(=O)(O)O)c1ccc(F)cc1F [fosravuconazole, 4-[2-[(1R,2R)-2-(2,4-difluorophenyl)-1-methyl-2-[(phosphonooxy)methoxy]-3-(1H-1,2,4-triazol-1-yl)propyl]-4-thiazolyl]benzo-nitrile]
Absence of fungal elements by direct microscopy (%) (fungal elements; 100 mg group, At screening): (0.0) %
Absence of fungal elements by direct microscopy, subjects (fungal elements; 100 mg group, At screening): 0
Presence of fungal elements by direct microscopy (%) (fungal elements; 100 mg group, At screening): (100.0) %
Presence of fungal elements by direct microscopy, subjects (fungal elements; 100 mg group, At screening): 28
Absence of fungal elements by direct microscopy (%) (fungal elements; 100 mg group, Week 12): (33.3) %
Absence of fungal elements by direct microscopy, subjects (fungal elements; 100 mg group, Week 12): 9
Presence of fungal elements by direct microscopy (%) (fungal elements; 100 mg group, Week 12): (16.7) %
Presence of fungal elements by direct microscopy, subjects (fungal elements; 100 mg group, Week 12): 18
Absence of fungal elements by direct microscopy (%) (fungal elements; 100 mg group, Week 24): (48.0) %
Absence of fungal elements by direct microscopy, subjects (fungal elements; 100 mg group, Week 24): 12
Presence of fungal elements by direct microscopy (%) (fungal elements; 100 mg group, Week 24): (52.0) %
Presence of fungal elements by direct microscopy, subjects (fungal elements; 100 mg group, Week 24): 13
Absence of fungal elements by direct microscopy, subjects (fungal elements; 100 mg group, Week 48): 18
Presence of fungal elements by direct microscopy (%) (fungal elements; 100 mg group, Week 48): (28.0) %
Presence of fungal elements by direct microscopy, subjects (fungal elements; 100 mg group, Week 48): 7
Absence of fungal elements by direct microscopy (%) (fungal elements; 200 mg group, At screening): (0.0) %
Absence of fungal elements by direct microscopy, subjects (fungal elements; 200 mg group, At screening): 0
Presence of fungal elements by direct microscopy (%) (fungal elements; 200 mg group, At screening): (100.0) %
Presence of fungal elements by direct microscopy, subjects (fungal elements; 200 mg group, At screening): 27
Absence of fungal elements by direct microscopy (%) (fungal elements; 200 mg group, Week 12): (50.0) %
Absence of fungal elements by direct microscopy, subjects (fungal elements; 200 mg group, Week 12): 13
Presence of fungal elements by direct microscopy (%) (fungal elements; 200 mg group, Week 12): (50.0) %
Presence of fungal elements by direct microscopy, subjects (fungal elements; 200 mg group, Week 12): 13
Absence of fungal elements by direct microscopy (%) (fungal elements; 200 mg group, Week 24): (48.0) %
Absence of fungal elements by direct microscopy, subjects (fungal elements; 200 mg group, Week 24): 12
Presence of fungal elements by direct microscopy (%) (fungal elements; 200 mg group, Week 24): (52.0) %
Presence of fungal elements by direct microscopy, subjects (fungal elements; 200 mg group, Week 24): 13
Absence of fungal elements by direct microscopy, subjects (fungal elements; 200 mg group, Week 48): 8
Presence of fungal elements by direct microscopy (%) (fungal elements; 200 mg group, Week 48): (63.6) %
Presence of fungal elements by direct microscopy, subjects (fungal elements; 200 mg group, Week 48): 14
Absence of fungal elements by direct microscopy (%) (fungal elements; 400 mg group, At screening): (0.0) %
Absence of fungal elements by direct microscopy, subjects (fungal elements; 400 mg group, At screening): 0
Presence of fungal elements by direct microscopy (%) (fungal elements; 400 mg group, At screening): (100.0) %
Presence of fungal elements by direct microscopy, subjects (fungal elements; 400 mg group, At screening): 33
Absence of fungal elements by direct microscopy (%) (fungal elements; 400 mg group, Week 12): (19.4) %
Absence of fungal elements by direct microscopy, subjects (fungal elements; 400 mg group, Week 12): 6
Presence of fungal elements by direct microscopy (%) (fungal elements; 400 mg group, Week 12): (80.6) %
Presence of fungal elements by direct microscopy, subjects (fungal elements; 400 mg group, Week 12): 25
Absence of fungal elements by direct microscopy (%) (fungal elements; 400 mg group, Week 24): (45.2) %
Absence of fungal elements by direct microscopy, subjects (fungal elements; 400 mg group, Week 24): 14
Presence of fungal elements by direct microscopy (%) (fungal elements; 400 mg group, Week 24): (54.8) %
Presence of fungal elements by direct microscopy, subjects (fungal elements; 400 mg group, Week 24): 17
Absence of fungal elements by direct microscopy, subjects (fungal elements; 400 mg group, Week 48): 17
Presence of fungal elements by direct microscopy (%) (fungal elements; 400 mg group, Week 48): (37.0) %
Presence of fungal elements by direct microscopy, subjects (fungal elements; 400 mg group, Week 48): 10
Disappearance rate of Trichophyton rubrum (Trichophyton rubrum [1]; 100 mg (once daily dose) group): 57.1%
Disappearance rate of Trichophyton rubrum (Trichophyton rubrum [1]; 200 mg (pulse treatment) group): 36.8%
Disappearance rate of Trichophyton rubrum (Trichophyton rubrum [1]; 400 mg (pulse treatment) group): 52.1% and 52.0%
Cure rate and 95% CI ([2]; 100 mg): 0.0 %
Cured ([2]; 100 mg): 0
Failed ([2]; 100 mg): 0
Improved ([2]; 100 mg): 0
Markedly improved ([2]; 100 mg): 4
Slightly improved ([2]; 100 mg): 0
Cure rate and 95% CI ([2]; 200 mg): 0.0 %
Cured ([2]; 200 mg): 0
Failed ([2]; 200 mg): 0
Improved ([2]; 200 mg): 2
Markedly improved ([2]; 200 mg): 0
Slightly improved ([2]; 200 mg): 0
Cure rate and 95% CI ([2]; 400 mg): 0.0 %
Cured ([2]; 400 mg): 0
Failed ([2]; 400 mg): 0
Improved ([2]; 400 mg): 0
Markedly improved ([2]; 400 mg): 2
Slightly improved ([2]; 400 mg): 0
Cure rate and 95% CI (Trichophyton rubrum [3]; 100 mg): 47.6 %
Cured (Trichophyton rubrum [3]; 100 mg): 10
Failed (Trichophyton rubrum [3]; 100 mg): 0
Improved (Trichophyton rubrum [3]; 100 mg): 1
Markedly improved (Trichophyton rubrum [3]; 100 mg): 10
Slightly improved (Trichophyton rubrum [3]; 100 mg): 0
Cure rate and 95% CI (Trichophyton rubrum [3]; 200 mg): 31.6 %
Cured (Trichophyton rubrum [3]; 200 mg): 6
Failed (Trichophyton rubrum [3]; 200 mg): 0
Improved (Trichophyton rubrum [3]; 200 mg): 2
Markedly improved (Trichophyton rubrum [3]; 200 mg): 11
Slightly improved (Trichophyton rubrum [3]; 200 mg): 0
Cure rate and 95% CI (Trichophyton rubrum [3]; 400 mg): 44.0 %
Cured (Trichophyton rubrum [3]; 400 mg): 11
Failed (Trichophyton rubrum [3]; 400 mg): 0
Improved (Trichophyton rubrum [3]; 400 mg): 4
Markedly improved (Trichophyton rubrum [3]; 400 mg): 10
Slightly improved (Trichophyton rubrum [3]; 400 mg): 0
Cure rate and 95% CI (Trichophyton species): 0.0 %
Cured (Trichophyton species): 0
Failed (Trichophyton species): 0
Improved (Trichophyton species): 0
Markedly improved (Trichophyton species): 1
Slightly improved (Trichophyton species): 0

Reference: patent US11324728B2, “Dosing regimens for the treatment of fungal infections” (Seren Pharmaceuticals Inc., priority 2017, dated 2022)
